# Experimental data: patent publication US8114641B2, “Methylbutanol as an advanced biofuel” (Synthetic Genomics, Inc., priority 2007, dated 2012)
# Where two headings read alike, the source gives them in different places.
# B1: L. lactis KDCA: Branched-chain alpha-ketoacid decarboxylase [Lactococcus lactis], SEQ ID NO: 61 (protein, listed as Lactococcus lactis)
# chain: MYTVGDYLLDRLHELGIEEIFGVPGDYNLQFLDQIISREDMKWIGNANELNASYMADGYARTKKAAAFLTTFGVGELSAINGLAGSYAENLPVVEIVGSPTSKVQNDGKFVHHTLADGDFKHFMKMHEPVTAARTLLTAENATYEIDRVLSQLLKERKPVYINLPVDVAAAKAEKPALSLEKESSTTNTTEQVILSKIEESLKNAQKPVVIAGHEVISFGLEKTVTQFVSETKLPITTLNFGKSAVDESLPSFLGIYNGKLSEISLKNFVESADFILMLGVKLTDSSTGAFTHHLDENKMISLNIDEGIIFNKVVEDFDFRAVVSSLSELKGIEYEGQYIDKQYEEFIPSSAPLSQDRLWQAVESLTQSNETIVAEQGTSFFGASTIFLKSNSRFIGQPLWGSIGYTFPAALGSQIADKESRHLLFIGDGSLQLTVQELGLSIREKLNPICFIINNDGYTVEREIHGPTQSYNDIPMWNYSKLPETFGATEDRVVSKIVRTENEFVSVMKEAQADVNRMYWIELVLEKEDAPKLLKKMGKLFAEQNK
# B2: ADH1: Saccharomyces cerevisiae alcohol dehydrogenase ADH1, SEQ ID NO: 67 (protein, listed as Saccharomyces cerevisiae)
# chain: MSIPETQKGVIFYESHGKLEYKDIPVPKPKANELLINVKYSGVCHTDLHAWHGDWPLPVKLPLVGGHEGAGVVVGMGENVKGWKIGDYAGIKWLNGSCMACEYCELGNESNCPHADLSGYTHDGSFQQYATADAVQAAHIPQGTDLAQVAPILCAGITVYKALKSANLMAGHWVAISGAAGGLGSLAVQYAKAMGYRVLGIDGGEGKEELFRSIGGEVFIDFTKEKDIVGAVLKATDGGAHGVINVSVSEAAIEASTRYVRANGTTVLVGMPAGAKCCSDVFNQVVKSISIVGSYVGNRADTREALDFFARGLVKSPIKVVGLSTLPEIYEKMEKGQIVGRYVVDTSK
# What was measured:
# [1] = Fuel properties of the neat fuel
# [2] = Physical properties of alcohol fuels and gasoline; type: physicochemical
# [3] = 10% blend in gasoline
# [4] = 10% blend in gasoline; value based on literature review; cited from earlier work
# [5] = based on literature review; cited from earlier work
# [6] = Keto acid decarboxylase activity on 2-keto-3-methylvalerate, PDC/KDC-ADH6 coupled assay with crude extracts; type: biochemical; conditions: crude extract; for Km: enzyme expressed from p415 TEF in S. cerevisiae PDC1 deletion strain, read-out: Km 2 keto 3 methyl valerate
# Method: (§1) The Lactococcus lactis KdcA and S. cerevisiae and P. stipitis PDCs were cloned into yeast expression vector p415 under the control of TEF promoter. The host strain was a PDC1 deletion strain. Crude extracts were prepared for enzymatic assays by incubating cell pellet with CelLytic (Sigma), followed by bead beating. The decarboxylase reaction was performed in 100 mM Citrate Phosphate buffer with 1 mM Thiamine diphosphate, 1 mM MgCl2 and 50 μM to 20 mM aldehyde. The assay was coupled to an alcohol dehydrogenase which enabled continuous monitoring of NADH or NADPH oxidation at 340 nm.
# The substrate specificity of the crude extract overexpressing different PDC/Kdcs was tested with a broad range of aldehydes. This included acetaldehyde, butyraldehyde and 2-methylbutyraldehyde. The concentration of the aldehydes was varied from 50 μM to 20 mM to determine the Km and Vmax values.
# 2-keto-3-methylvalerate (2K3MV) was tested for decarboxylation and subsequent reduction using PDC/KDC-ADH6 coupled assays.
# [7] = Keto acid decarboxylase activity on pyruvate, crude extracts; type: biochemical; conditions: crude extract, S. cerevisiae PDC1 deletion host; sigmoidal curves
# Method: as §1
# Pyruvate is the target for multiple enzymes and a decarboxylation of the compound can lead to the production of acetaldehyde and subsequently ethanol. To prevent decarboxylation of pyruvate and increase 2-MBO production, a keto acid decarboxylase with a very high Km for pyruvate is ideal. […] The kinetic curves obtained with pyruvate as substrate were sigmoidal. This could be due to the fact that there are multiple enzymes in the crude extract with different Km for pyruvate. The final curve is therefore the superposition of individual curves. Absolute Km values […]. (FIG. 26.)
# [8] = Keto acid decarboxylase activity on 2-keto butyrate, NADH dependent coupled assay with yeast ADH1; type: biochemical; conditions: crude extract
# Method: as §1
# NADH dependent coupled assays with yeast ADH1 were carried out to determine the decarboxylase activity of yeast and heterologous enzymes on the substrate 2 keto butyrate (2KB). 2KB is an intermediate in the production of 2-methylbutanol. A high decarboxylase activity on 2KB can lead to its conversion to propanal and reduce the yield of 2-MBO. […] (See FIG. 25 a-g.) The enzyme with the lowest Km for 2-ketobutyrate is yeast PDC1 and therefore the corresponding gene needs to be deleted in the 2-MBO production strain (data not shown).
# [9] = Reductase activity of yeast ADH1 on various aldehydes; type: biochemical
# Method: The ideal ADH for 2-MBO production should be able to reduce branched aldehydes. Therefore, the enzymes ADH1, ADH6, and ADH7 were overexpressed in yeast and were tested for their reductase activity on various aldehydes.
# [10] = S. cerevisiae PDC1 deletion host
molecule,measurement,setting,value
"CCO [Ethanol, reference compound]",Energy Content,[1],"84,519 BTU/gal"
same,Reid Vapor Pressure,[1],2.3 psi
same,Pump Octane (R + M)/2,[1]; extrapolated from tests on blended fuels (blending octanes),130.9
same,"Boiling Point, max",[2],79 °C
same,"Flash Point, min",[2],13 °C
same,"Freezing Point, max",[2],−114 °C
same,Energy Content,[3],"111,052 BTU/gal"
same,Pump Octane (R + M)/2,[3]; RBOB with Pump Octane 80.85 and RVP 7.37,85.9
same,Reid Vapor Pressure,[4],~8.2^A psi
same,Fuel Solubility in Water,[5],100 wt %
same,Water Solubility in Fuel,[5],100 wt %
B1,Vmax 2 keto 3 methyl valerate,[6]; [10],987.3 µM/min/mg
same,Km,[6]; listed as KDCA,3.7 mM
same,Km,[6],3.75 mM
same,Vmax Pyruvate,[7],10069 µM/min/mg
same,Vmax 2 keto butyrate,[8]; [10],2053.0 µM/min/mg
same,Km,[8]; enzyme expressed from p415 TEF in S. cerevisiae PDC1 deletion strain,6.05 mM
B2,fold less active on 2-methyl butaraldehyde than acetaldehyde,[9],~5000 fold
